Source: patent US20240101573A1, “MACROCYCLIC K-RAS G12C INHIBITOR, PREPARATION METHOD THEREFOR AND USE THEREOF” (Abbisko Therapeutics Co., Ltd., priority 2020, published 2024)

Tests used:
H358 = test: Anti-proliferation 2D CTG test (H358); type: cell-based; settings: H358 cells, 1500 cells/well, 5 days incubation with compound, CTG readout
Description: (§1) When the cell confluency was 80%, the cells were isolated with 0.25% trypsin. The isolated cells were resuspended in 5 mL of fresh cell culture medium and centrifuged to collect the cells. The number of cells were counted at the same time. Then, the cells were suspended in a culture medium at a moderate concentration. The cells were placed into a 96-well plate with 1500 cells/well for H358 and 500 cells/well for MIAPACA-2. The 96-well plate was placed in an incubator at 37° C. and incubated overnight.
(§2) 2) Day 1: processing of compound
(§3) A 2 mM stock solution was serially diluted at 10 points at a ratio of 1:3. 5× culture medium containing the compound was transferred to the corresponding wells of 96 wells. The final peak concentration of the compound was […], and the final concentration of DMSO was 0.5%. The 96-well plate was placed in the incubator at 37° C. and incubated for 5 days.
(§4) 3) Baseline reading. 4) Day 6: reading of signals
(§5) A detection reagent (CTG) was added at 50 μL/well, and the signals were read in an Envision instrument.
(§6) The percentage of inhibition ([…]) at each compound concentration was calculated based on the signals from the HPE and ZPE control wells contained in each assay plate and the fluorescence signals from individual compound wells. The inhibition rate in the ZPE control wells containing the enzyme and substrate was 0%, and the inhibition rate in the HPE control wells only containing the substrate was […]. By testing the compound in terms of numeric concentration and inhibition percentage, the compound concentration required for […] inhibition (IC50) was determined using a four-parameter logarithmic dose-response equation. The endpoint value (IC50) of the reference compound was evaluated in each experiment as a quality control measure. If the endpoint value was within three times the expected value, the experiment was considered acceptable.

MIA PaCa-2 = test: Anti-proliferation 2D CTG test (MIA PaCa-2); type: cell-based; settings: MIAPACA-2 cells, 500 cells/well, 5 days incubation with compound, CTG readout
Description: as §1, §2, §3, §4, §5, §6

[1] = Homo sapiens, MIA PaCa-2, 120 h

Compound | IC50 (H358; Homo sapiens, NCI-H358, 120 h) [µM] | IC50 (MIA PaCa-2; [1]) [µM] | IC50 (H358) [µM] | IC50 (MIA PaCa-2) [µM]
C=CC(=O)N1CCN(c2nc(=O)n3c4nc(c(F)cc24)-c2c(F)cccc2OCCC(OC(C)=O)c2ccnc(C(C)C)c2-3)[C@@H](C)C1 (stereo partly drawn) [Example 16, 2^4-((S)-4-acryloyl-2-methylpiperazin-1-yl)-2^6,3^6-difluoro-1^2-isopropyl-2^2-oxo-2^1,2^2-dihydro-4-oxa-2(1,7)-pyrido[2,3-d]pyrimidina-1(3,4)-pyridina-3(1,2)-benzocycloheptane-7-yl acetate] | 0.029 | 0.02 |  | 
C=CC(=O)N1CCN(c2nc(=O)n3c4nc(c(F)cc24)-c2c(F)cccc2OCC(OCOC(=O)OC)C(OCOC(=O)OC)c2ccnc(C(C)C)c2-3)[C@@H](C)C1 (stereo partly drawn) [Example 17, ((2^4-((S)-4-acryloyl-2-methylpiperazin-1-yl)-2^6,3^6-difluoro-1^2-isopropyl-2^2-oxo-2^1,2^2-dihydro-4-oxa-2(1,7)-pyrido[2,3-d]pyrimidina-1(3,4)-pyridina-3(1,2)-benzocycloheptane-6,7-diyl)di(oxo))di(methylene) dimethyldi(carbonate)] | 0.009 | 0.009 |  | 
C=CC(=O)N1CCN(c2nc(=O)n3c4nc(c(F)cc24)-c2c(F)cccc2OCC(OC(C)=O)C(OC(C)=O)c2ccnc(C(C)C)c2-3)[C@@H](C)C1 (stereo partly drawn) [Example 18, 2^4-((S)-4-acryloyl-2-methylpiperazin-1-yl)-2^6,3^6-difluoro-1^2-isopropyl-2^2-oxo-2^1,2^2-dihydro-4-oxa-2(1,7)-pyrido[2,3-d]pyrimidina-1(3,4)-pyridina-3(1,2)-benzocycloheptane-6,7-diyl diacetate] | 0.014 | 0.006 |  | 
C=CC(=O)N1CCN(c2nc(=O)n3c4nc(c(F)cc24)-c2c(F)cccc2OCC(OC(C)=O)C(OC(C)=O)c2ccnc(C(C)C)c2-3)[C@@H](C)C1 (stereo partly drawn) [Example 18-R, (R)-2^4-((S)-4-acryloyl-2-methylpiperazin-1-yl)-2^6,3^6-difluoro-1^2-isopropyl-2^2-oxo-2^1,2^2-dihydro-4-oxa-2(1,7)-pyrido[2,3-d]pyrimidina-1(3,4)-pyridina-3(1,2)-benzocycloheptane-6,7-diyl diacetate] |  |  | 0.016 | 0.015
C=CC(=O)N1CCN(c2nc(=O)n3c4nc(c(F)cc24)-c2c(F)cccc2OCC(OC(C)=O)C(OC(C)=O)c2ccnc(C(C)C)c2-3)[C@@H](C)C1 (stereo partly drawn) [Example 18-S, (S)-2^4-((S)-4-acryloyl-2-methylpiperazin-1-yl)-2^6,3^6-difluoro-1^2-isopropyl-2^2-oxo-2^1,2^2-dihydro-4-oxa-2(1,7)-pyrido[2,3-d]pyrimidina-1(3,4)-pyridina-3(1,2)-benzocycloheptane-6,7-diyl diacetate] |  |  | 0.351 | 0.266
C=CC(=O)N1CCN(c2nc(=O)n3c4nc(c(F)cc24)-c2c(F)cccc2OCC(=O)C(OC(C)=O)c2ccnc(C(C)C)c2-3)[C@@H](C)C1 (stereo partly drawn) [Example 19, 2^4-((S)-4-acryloyl-2-methylpiperazin-1-yl)-2^6,3^6-difluoro-1^2-isopropyl-2^2,6-dioxo-2^1,2^2-dihydro-4-oxa-2(1,7)-pyrido[2,3-d]pyrimidina-1(3,4)-pyridina-3(1,2)-benzocycloheptane-7-yl acetate] | 0.018 | 0.018 |  | 
C=CC(=O)N1CCN(c2nc(=O)n3c4nc(c(F)cc24)-c2c(F)cccc2OCC(=O)C(OC(C)=O)c2ccnc(C(C)C)c2-3)[C@@H](C)C1 (stereo partly drawn) [Example 20, (R)-2^4-((S)-4-acryloyl-2-methylpiperazin-1-yl)-2^6,3^6-difluoro-1^2-isopropyl-2^2,6-dioxo-2^1,2^2-dihydro-4-oxa-2(1,7)-pyrido[2,3-d]pyrimidina-(3,4)-pyridina-3(1,2)-benzocycloheptane-7-yl acetate] |  |  | 0.025 | 0.03
C=CC(=O)N1CCN(c2nc(=O)n3c4nc(c(F)cc24)-c2c(F)cccc2OCC(OCC)C(=O)c2ccnc(C(C)C)c2-3)[C@@H](C)C1 (stereo partly drawn) [Example 21, (R)-2^4-((S)-4-acryloyl-2-methylpiperazin-1-yl)-6-ethoxy-2^6,3^6-difluoro-1^2-isopropyl-2^1,2^2-dihydro-4-oxa-2(1,7)-pyrido[2,3-d]pyrimidina-1(3,4)-pyridina-3(1,2)-benzocycloheptane-22,7-dione] | 0.06 | 0.153 |  | 
C=CC(=O)N1CCN(c2nc(=O)n3c4nc(c(F)cc24)-c2c(F)cccc2OCC(O)C(OC(=O)C(N)C(C)C)c2ccnc(C(C)C)c2-3)C(C)C1 [Example 23, 2^4-((S)-4-acryloyl-2-methylpiperazin-1-yl)-2^6,3^6-difluoro-6-hydroxy-1^2-isopropyl-2^2-oxo-2^1,2^2-dihydro-4-oxa-2(1,7)-pyrido[2,3-d]pyrimidina-1(3,4)-pyridina-3(1,2)-benzocycloheptane-7-yl L-valine ester] |  |  | 0.011 | 0.009
C=CC(=O)N1CCN(c2nc(=O)n3c4nc(c(F)cc24)-c2c(F)cccc2OCC(O)C(OCCF)c2ccnc(C(C)C)c2-3)[C@@H](C)C1 (stereo partly drawn) [Example 24, 2^4-((S)-4-acryloyl-2-methylpiperazin-1-yl)-2^6,3^6-difluoro-7-(2-fluoroethoxy)-6-hydroxy-1^2-isopropyl-2^1,2^2-dihydro-4-oxa-2(1,7)-pyrido[2,3-d]pyrimidina-1(3,4)-pyridina-3(1,2)-benzocycloheptane-2^2-one] | 0.017 | 0.008 |  | 

More lines, main results first:

IC50 (H358; Homo sapiens, NCI-H358, 120 h) [µM] | IC50 (MIA PaCa-2; [1]) [µM] | Compound | IC50 (H358) [µM] | IC50 (MIA PaCa-2) [µM]
0.005 | 0.005 | C=CC(=O)N1CCN(c2nc(=O)n3c4nc(c(F)cc24)-c2c(F)cccc2OCC(OC(=O)C(C)C)C(OC(=O)C(C)C)c2ccnc(C(C)C)c2-3)[C@@H](C)C1 (stereo partly drawn) [Example 13, 2^4-((S)-4-acryloyl-2-methylpiperazin-1-yl)-2^6,3^6-difluoro-1^2-isopropyl-2^2-oxo-2^1,2^2-dihydro-4-oxa-2(1,7)-pyrido[2,3-d]pyrimidina-1(3,4)-pyridina-3(1,2)-benzocycloheptane-6,7-diyl di(2-methylpropionate)] |  | 
0.006 | 0.009 | C=CC(=O)N1CCN(c2nc(=O)n3c4nc(c(F)cc24)-c2c(F)cccc2OCC(OC(=O)C2CC2)C(OC(=O)C2CC2)c2ccnc(C(C)C)c2-3)[C@@H](C)C1 (stereo partly drawn) [Example 14, 2^4-((S)-4-acryloyl-2-methylpiperazin-1-yl)-2^6,3^6-difluoro-1^2-isopropyl-2^2-oxo-2^1,2^2-dihydro-4-oxa-2(1,7)-pyrido[2,3-d]pyrimidina-1(3,4)-pyridina-3(1,2)-benzocycloheptane-6,7-diyl dicyclopropanecarboxylate] |  | 
0.012 | 0.01 | C=CC(=O)N1CCN(c2nc(=O)n3c4nc(c(F)cc24)-c2c(F)cccc2OCC(OC(=O)OC(C)(C)C)C(OC(=O)OC(C)(C)C)c2ccnc(C(C)C)c2-3)[C@@H](C)C1 (stereo partly drawn) [Example 15, 2^4-((S)-4-acryloyl-2-methylpiperazin-1-yl)-2^6,3^6-difluoro-1^2-isopropyl-2^2-oxo-2^1,2^2-dihydro-4-oxa-2(1,7)-pyrido[2,3-d]pyrimidina-1(3,4)-pyridina-3(1,2)-benzocycloheptane-6,7-diyl di-tert-butyldi(carbonate)] |  | 
0.014 | 0.007 | C=CC(=O)N1CCN(c2nc(=O)n3c4nc(c(F)cc24)-c2c(F)cccc2OCC(=O)C(OCC)c2ccnc(C(C)C)c2-3)[C@@H](C)C1 (stereo partly shown) [Example 22] |  | 
